Experimental data from patent US4880922A, “Carbapenems with quaternized heterothioalkylthio substitution at position 2” (Bristol-Myers Company, priority 1985, dated 1989).
≈ marks a conversion by molar mass, not a printed value.

How the values were obtained:
Str. pneumoniae = test: In vitro antibacterial activity, MIC by tube dilution; assay type: cell-based; settings: Streptococcus pneumoniae, Nutrient Broth, overnight, 37° C.
Str. pyogenes = test: as above; assay type: cell-based; settings: Streptococcus pyogenes, Nutrient Broth, overnight, 37° C.
Staph. aureus = test: as above; assay type: cell-based; settings: Staphylococcus aureus, Nutrient Broth, overnight, 37° C.
Staph. aureus (Pen-R) = test: as above; assay type: cell-based; settings: Staphylococcus aureus, Nutrient Broth, overnight, 37° C.
Str. faecalis = test: as above; assay type: cell-based; settings: Enterococcus faecalis, Nutrient Broth, overnight, 37° C.
E. coli = test: as above; assay type: cell-based; settings: Escherichia coli, Nutrient Broth, overnight, 37° C.
K. pneumoniae = test: as above; assay type: cell-based; settings: Klebsiella pneumoniae, Nutrient Broth, overnight, 37° C.
Pr. mirabilis = test: as above; assay type: cell-based; settings: Proteus mirabilis, Nutrient Broth, overnight, 37° C.
Pr. vulgaris = test: as above; assay type: cell-based; settings: Proteus vulgaris, Nutrient Broth, overnight, 37° C.
Pr. morganii = test: as above; assay type: cell-based; settings: Morganella morganii, Nutrient Broth, overnight, 37° C.
Pr. rettgeri = test: as above; assay type: cell-based; settings: Providencia rettgeri, Nutrient Broth, overnight, 37° C.
Ser. marcescens = test: as above; assay type: cell-based; settings: Serratia marcescens, Nutrient Broth, overnight, 37° C.
Ent. cloacae = test: as above; assay type: cell-based; settings: Enterobacter cloacae, Nutrient Broth, overnight, 37° C.
Ps. aeruginosa [1] = test: as above; assay type: cell-based; settings: Pseudomonas aeruginosa, Nutrient Broth, overnight, 37° C.
Ps. (Carb-R) = test: as above; assay type: cell-based; settings: Nutrient Broth, overnight, 37° C.
Ps. aeruginosa [2] = test: Protective effect in the intramuscular treatment of infected mice; assay type: in vivo; settings: Pseudomonas aeruginosa, im, I.M., column of the in vitro table, read-out: PD50 I.M.
Protocol: The in vivo therapeutic efficacy of the compound of Example 1 after intramuscular administration to mice experimentally infected with various organisms are shown in the following Table. The PD50 (dose in mg/kg required to give protection to 50% of the infected mice) is indicated.
Treatment Schedule: Mice were treated i.m. with drugs 0 and 2 hours

[3] = Blood levels in mice after intramuscular administration; assay type: in vivo; settings: mouse, im, 20 mg/kg
From the text: (§1) Compounds were solubilized in 0.1 M phosphate buffer pH 7. Values are fro
(§2) a single test; 4 mice per compound.

[4] = Urinary recovery after intramuscular administration to mice; assay type: in vivo; settings: mouse, urine, im, 20 mg/kg, 0-24 hours after administration, 0.1 M phosphate buffer pH 7, single test, 4 mice, read-out: Urinary recovery, Percentage of Dose Recovered
From the text: as §1, §2

C[C@@H](O)[C@H]1C(=O)N2C(C(=O)[O-])=C(SCCSc3cccc[n+]3C)C[C@H]12 [Example 1, (5R,6S) 6-(1R-hydroxyethyl)-3-[(1-methylpyridinium-2-yl)-2-thioethylthio]-7-oxo-1-azabicyclo (3.2.0)hept-2-ene-2-carboxylate]
MIC (Str. pneumoniae): 0.0005 µg/mL (≈ 0.00131 µM)
MIC (Str. pyogenes): 0.0005 µg/mL (≈ 0.00131 µM)
MIC (Staph. aureus; Staph. aureus + 50% serum): 0.008 µg/mL
MIC (Staph. aureus; Staph. aureus): 0.004 µg/mL (≈ 0.0105 µM)
MIC (Staph. aureus (Pen-R)): 0.004 µg/mL (≈ 0.0105 µM)
MIC (Str. faecalis): 0.13 µg/mL (≈ 0.342 µM)
MIC (E. coli; first line (strain not named)): 0.008 µg/mL (≈ 0.021 µM)
MIC (E. coli; second line (strain not named)): 0.016 µg/mL (≈ 0.0421 µM)
MIC (K. pneumoniae; first line (strain not named)): 0.03 µg/mL (≈ 0.0788 µM)
MIC (K. pneumoniae; second line (strain not named)): 0.06 µg/mL (≈ 0.158 µM)
MIC (Pr. mirabilis): 0.016 µg/mL (≈ 0.0421 µM)
MIC (Pr. vulgaris): 0.016 µg/mL (≈ 0.0421 µM)
MIC (Pr. morganii): 0.06 µg/mL (≈ 0.158 µM)
MIC (Pr. rettgeri): 0.13 µg/mL (≈ 0.342 µM)
MIC (Ser. marcescens): 0.03 µg/mL (≈ 0.0788 µM)
MIC (Ent. cloacae; first line (strain not named)): 0.06 µg/mL (≈ 0.158 µM)
MIC (Ent. cloacae; second line (strain not named)): 0.13 µg/mL (≈ 0.342 µM)
MIC (Ps. aeruginosa [1]): 8 µg/mL (≈ 21 µM)
MIC (Ps. (Carb-R)): 2 µg/mL (≈ 5.26 µM)
ED50 (Ps. aeruginosa [2]): 2.9 mg/kg
AUC [3]: 4100 ng·h/mL
concentration at 10 min ([3]; 10 min after administration, read-out: Blood Level): 11100 ng/mL
concentration at 20 min ([3]; 20 min after administration, read-out: Blood Level): 8000 ng/mL
concentration at 0.5 h ([3]; 30 min after administration, read-out: Blood Level): 3600 ng/mL
concentration at 0.75 h ([3]; 45 min after administration, read-out: Blood Level): 1000 ng/mL
concentration at 1 h ([3]; 60 min after administration, read-out: Blood Level): < 300 ng/mL
concentration at 1.5 h ([3]; 90 min after administration, read-out: Blood Level): < 300 ng/mL
half-life ([3]; read-out: t1/2 (half-life)): 8 min
dose excreted at 24 h [4]: 31.5%
